# Data: patent publication US20140322315A1, “CYSTEAMINE AND/OR CYSTAMINE FOR TREATING ISCHEMIC INJURY” (The Regents of the University of California, priority 2011, published 2014)
# Values joined by “and” are separate entries in the source; they are usually repeats but may differ in a detail not shown here. Equal values may be shown once. “Also recorded” adds a separate entry of the source.
# Key:
# subjects with NAFLD = assay: Pilot study of EC-cysteamine in children with NAFLD: ALT, AST, BMI, leptin, responders; type: in vivo, human; details: for mean AST / mean ALT: all study subjects; for mean AST: baseline 60.9 IU/L; for mean ALT: baseline 123 IU/L; for mean leptin level: responders, baseline 21.3 ng/mL
# From the text: Eleven children ≧10 years, with biopsy-proven NAFLD and an alanine aminotransferase (ALT) level ≧60 IU/L, were enrolled. They were either newly diagnosed or had not received specific therapy for NAFLD such as vitamin E or insulin-sensitizing drugs for at least 3 months before entering the study. All had undertaken standard of care lifestyle changes involving diet and exercise for more than 3 months. The study's primary outcome measure was normalization (≦40 IU/L) or 50% reduction in baseline serum ALT at 24 weeks of EC-cysteamine therapy; these subjects were deemed responders.
# Subjects were treated for 24 wks and remained monitored for 24 weeks following its discontinuation. The mean EC-cysteamine dose ingested was 654 mg twice daily or 15.2 mg/kg/day (median dose 900 mg) for 24 wks.
# During the pilot study blood was collected at pre-defined intervals. Serum was stored at −80° C. until time of assay. Adequate serum volumes were available in 10 of the 11 subjects with NAFLD and only up to 16 weeks post-treatment.
# circulating leukocytes = details: Dohil et al., J. Pediatr 2006; cited from earlier work
# [1] = set-up: species or system mice (C57BL/6); details: mouse, in vivo
# adiponectin = assay: Adiponectin secretion by adipose tissue explants / isolated fat cells cultured with cysteamine; type: cell-based; details: 90 μM cysteamine, 45 min; p=0.002
# Protocol: Fat biopsy adipose tissue (AT) samples were collagenase digested×1 hr at 37° C. in a rotating waterbath. Digested AT was then filtered through 425 μm nylon mesh to separate fat cells. Isolated fat cells (FC) were twice washed in physiologic salts buffer (Phillips 2008), filtered and twice washed again. FC were spun at 50×g to concentrate. 1 ml FC were resuspended in 9 ml of defined culture media (Phillips 2008) and FC were allowed to recover×10 hrs overnight at 37° C.
# Adipocytes were isolated and allowed to recover×overnight then cultured with or without 90 μM cysteamine and media collected at the following time points (45, 90, 180, 24 hr). Western Blot analysis of 20 μl of media was performed with non-reducing 5× Loading buffer. […] The blot was washed and incubated with a secondary antibody (Goat anti-mouse IR 800) and densitometry measured on a LICOR densitometer. […]
# To determine the time course of cysteamine effects on adiponectin, media was changed and FC were resuspended in 9 ml of defined media ±90 μM cysteamine. FC content and secretion of adiponectin into the media was assessed in duplicate culture at 0, 45, 90, 180 minutes and 24 hr. […] Signal detection and quantitative analysis was completed using the LiCOR Odyssey Machine (LiCOR, Lincoln, Nebr.). Multimeric content of cellular adiponectin was determined by dividing the AU for the multimer by the total AU per sample. […]
# [2] = tested on: LAD artery ligation ischemia/reperfusion; assay: Myocardial ischemia/reperfusion (LAD artery ligation) in mice: infarct area, echocardiography; type: in vivo, mice (C57BL/6); set-up: IA (Ischemic Area): unit not given beside the values
# Protocol: To analyze ischemic damage and treatment with cysteamine a study in mice (C57BL/6-Male-12 weeks, 25 g) that are either pre-treated or naïve to cysteamine bitartrate was performed as follows.
# Pre-treated animals received intra-peritoneal cysteamine, 60 mg/kg twice (120 mg/kg/day) 2 hours before surgery for LAD artery ligation. Following a 60 minute ligation period the obstruction was removed and another dose of cysteamine was given immediately at the time of reperfusion and also twice daily injections for 4 days following reperfusion. A control group received the same volumes of control IV solution injected instead of cysteamine. Acceptable volumes of blood were collected at baseline, and at predetermined time points after the ischemic insult in order to determine levels of surrogate markers of inflammation and plasma cysteamine. […] Before sacrifice, the LAD was re-occluded and Evan's Blue was injected through JVC in order to delineate the non-ischemic area. […] Echocardiography provided ventricular volume data as well as wall function. Hemodynamic studies provided muscle contractility data (specifically systolic data).
# So far seven mice were studied. Four received control solution and 3 received cysteamine. […] This is a reduction of 13%.
compound,measurement,setting,value
"NCCS [cysteamine, Cysteamine]",responders (ALT normalization ≦40 IU/L or 50% reduction at 24 weeks),"subjects with NAFLD; 24 weeks EC-cysteamine therapy, subjects with serum analyzed",Seven of the 10
same,mean AST,"subjects with NAFLD; 24 weeks of treatment, P=0.001",32 IU/L
same,mean ALT,"subjects with NAFLD; 24 weeks of treatment, P=0.003",55 IU/L
same,mean AST,"subjects with NAFLD; 40 weeks (16 weeks off therapy), P=0.012",35 IU/L
same,mean ALT,"subjects with NAFLD; 40 weeks (16 weeks off therapy), P=0.055",71 IU/L
same,mean leptin level,"subjects with NAFLD; 24 weeks, P=0.04",15.7 ng/mL
same,mean leptin level,subjects with NAFLD; 40 weeks,19.5 ng/mL
same,intracellular cystine levels in circulating leukocytes,circulating leukocytes,lowering
same,body weight reduction,[1],14%
same,mean terminal weight,[1],18.3 g
same,"total adiponectin, treated vs untreated",adiponectin,Significant difference
same,IA (Ischemic Area),[2]; MEAN of 3 mice,7.99
same,IA/LV (cysteamine) (%),"[2]; MEAN of 3 mice, control 17.66%",8.12%
same,IA/AAR (cysteamine) (%),"[2]; MEAN of 3 mice, control 58.57%",33.24%
same,"mean end diastolic volume (EDV), 24 h vs 72 h","[2]; cysteamine group, p=0.032",significant difference; also recorded: significant reduction
same,relative amounts of ischemic damage compared with control groups,[2]; cysteamine treated vs control,about half
same,IA/AAR (cysteamine) (%),[2]; individual mice (raw data),38.02% and 34.78% and 26.92%
same,IA/LV (cysteamine) (%),[2]; individual mice (raw data),12.66% and 6.24% and 5.47%
same,IA (Ischemic Area),"[2]; individual mice (raw data), cysteamine 60 mg/kg twice daily",9.37 and 11.14 and 3.46
same,"IA/AAR ratio, cysteamine vs control group",[2]; p=0.004,significant reduction; also recorded: significant difference
same,"IA/LV ratio, cysteamine vs control group",[2]; p=0.008,significant reduction; also recorded: significant difference
same,"percentage change in ESV between 24 h and 72 h, vs control group",[2]; p=0.039,significantly greater percentage reduction
same,"percentage change in EDV between 24 h and 72 h, vs control group",[2]; p=0.04,significantly greater percentage reduction; also recorded: significant difference
